According to patent publication US8575364B2, “Modulators of serotonin receptor” (Janssen Pharmaceutica NV, priority 2008, dated 2013):
Structures can show the parent of a compound that is named as a salt.

Columns and labels:
[1] = target: rat 5-HT7 receptors (Rattus norvegicus (Rat), UniProt P32305); assay: r5-HT7 competitive radioligand binding assay ([3H]5-CT); conditions: membrane fractions of HEK-293 cells recombinantly expressing rat 5-HT7
Protocol: Compound affinity for the rat 5-HT7 receptor subtype was evaluated by competitive radioligand binding assays using 5-carboxamido[^3H]tryptamine ([^3H]5-CT) (Amersham Biosciences, cat. 90000403) detection. HitHunter™ cAMP assays are in-vitro based competitive immunoassays. […] Cells were pre-incubated with test compounds for 10 minutes. For agonistic testing, the concentration of test compound that produced a half-maximal response is represented by the EC50 value. Compounds were assayed in their free form or as salts, as indicated in the Examples section above.

[2] = target: r5-HT7 receptor (Rattus norvegicus (Rat), UniProt P32305); assay: HitHunter cAMP assay, agonistic testing; format: cell-based; conditions: HEK-293 cells stably transfected with r5-HT7 receptor
r5-HT7 receptor, sequence (P32305 1-435): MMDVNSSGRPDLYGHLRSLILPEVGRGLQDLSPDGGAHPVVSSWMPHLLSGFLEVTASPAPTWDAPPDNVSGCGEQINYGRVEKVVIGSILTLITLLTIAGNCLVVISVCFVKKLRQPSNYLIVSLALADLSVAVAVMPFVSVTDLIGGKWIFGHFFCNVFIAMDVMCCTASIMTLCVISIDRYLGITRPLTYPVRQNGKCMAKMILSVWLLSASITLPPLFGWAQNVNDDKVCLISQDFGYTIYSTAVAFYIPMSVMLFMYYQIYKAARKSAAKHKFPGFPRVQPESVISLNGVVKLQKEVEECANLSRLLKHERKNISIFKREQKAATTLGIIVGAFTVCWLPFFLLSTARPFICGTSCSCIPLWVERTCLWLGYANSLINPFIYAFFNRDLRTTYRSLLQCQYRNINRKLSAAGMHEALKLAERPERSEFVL
Protocol: Receptor binding was performed using membrane fractions prepared from the HEK-293 cell line recombinantly expressing rat 5-HT7 receptors (NCBI accession NM_022938). Compound affinity for the rat 5-HT7 receptor subtype was evaluated by competitive radioligand binding assays using 5-carboxamido[^3H]tryptamine ([^3H]5-CT) (Amersham Biosciences, cat. 90000403) detection. HitHunter™ cAMP assays are in-vitro based competitive immunoassays. The assay was performed on the HEK-293 cell line stably transfected with r5-HT7 receptor. Cells were pre-incubated with test compounds for 10 minutes. For agonistic testing, the concentration of test compound that produced a half-maximal response is represented by the EC50 value. Compounds were assayed in their free form or as salts, as indicated in the Examples section above.

rat 5-HT7 receptors, sequence (P32305 1-435): as above

| Structure (SMILES) | Ki [1] [nM] | EC50 [2] [nM] |
| --- | --- | --- |
| COc1ccc(-c2ccccc2C(F)(F)F)cc1OC1CNC1 [Example 1, 3-(4-Methoxy-2′-trifluoromethyl-biphenyl-3-yloxy)-azetidine] | 3.79 | 200 |
| COc1ccc(-c2ccccc2C)cc1OC1CNC1 [Example 8, 3-(4-Methoxy-2′-methyl-biphenyl-3-yloxy)-azetidine trifluoroacetate] | 13.5 | 794 |
| Clc1ccc(-c2ccccc2C2CCNC2)cc1 (stereo not drawn) [Example 56, 3-(4′-Chloro-biphenyl-2-yl)-pyrrolidine] | 180 | – |
| COc1ccc(-c2ccccc2)cc1OC1CCNCC1 [Example 68, 4-(4-Methoxy-biphenyl-3-yloxy)-piperidine] | 1480 | – |
| COc1ccc(-c2ccccc2C(F)(F)F)cc1OC1CCNCC1 [Example 69, 4-(4-Methoxy-2′-trifluoromethyl-biphenyl-3-yloxy)-piperidine] | 59 | – |

Next, values leading:

| Ki [1] [nM] | EC50 [2] [nM] | Structure (SMILES) |
| --- | --- | --- |
| 11 | 631 | COc1ccc(-c2cccc(C)c2C)cc1OC1CNC1 [Example 4, 3-(4-Methoxy-2′,3′-dimethyl-biphenyl-3-yloxy)-azetidine] |
| 19 | 1580 | COc1ccc(-c2cccc(F)c2C)cc1OC1CNC1 [Example 5, 3-(3′-Fluoro-4-methoxy-2′-methyl-biphenyl-3-yloxy)-azetidine] |
| 4.42 | 794 | COc1ccc(-c2ccccc2Cl)cc1OC1CNC1 [Example 17, 3-(2′-Chloro-4-methoxy-biphenyl-3-yloxy)-azetidine] |
| 470 | – | Cc1cc(-c2ccc(Cl)cc2OC2CNC2)ccc1F [Example 41, 3-(4-Chloro-4′-fluoro-3′-methyl-biphenyl-2-yloxy)-azetidine] |
| 210 | – | Cc1ccc(-c2ccc(Cl)cc2OC2CNC2)cc1C [Example 42, 3-(4-Chloro-3′,4′-dimethyl-biphenyl-2-yloxy)-azetidine] |
